Assay results as given in patent US4717731A, “7H thieno[2,3-a]quinolizines, useful as α2 -andrenoceptor antagonist” (John Wyeth & Brother Limited, priority 1984, dated 1988).

Assays:
α2 -adrenoceptor = test: α2-adrenoceptor antagonistic activity on the rat field stimulated vas deferens preparation (vs clonidine); settings: for α2 /α1 selectivity [antilog of (α2 pA2 -α1 pA2)]: from vas deferens α2 pA2 and anococcygeus α1 pA2; for pA2 for α2 -adrenoceptor antagonistic activity: rat field stimulated vas deferens, agonist clonidine, Schild plot, 90 min
Protocol: The compounds of the invention are tested for α2 -adrenoceptor antagonistic activity on the rat field stimulated vas deferens preparation using a modification of the method of Drew, Eur. J. Pharmac., 1977, 42, 123-130. The procedure is described below.
Desheathed vasa deferentia from sexually mature rats were suspended in a 6 ml organ bath in Krebs solution at 37° and bubbled with 5% CO2 in oxygen. Platinum ring electrodes were positioned above and below the tissue for field stimulation, the stimulus parameters being 0.1 Hz 1 ms pulse width at supramaximal voltage. Twitch responses were recorded isotonically with a 0.5 g loading. Clonidine hydrochloride was used as the α-adrenoceptor agonist and cumulative concentration-response curves were constructed for the inhibition of twitch obtained with clonidine in the range 0.125 to 4 ng ml^-1. After washing out clonidine, the twitch response quickly recovered and an antagonist was then introduced into the Krebs reservoir. Clonidine concentration-response curves were repeated 90 min after introduction of the antagonist. The concentration of clonidine producing 50% inhibition of twitch before and after introduction of antagonist were obtained and the dose-ratio for clonidine was calculated. Various concentrations of the antagonists were used.
Chemother., 1959, 14, 48-58 and the values of pA2 and slope were calculated.

α1 -adrenoceptors = test: α1 antagonistic activity on the isolated anococcygeus muscle of the rat (vs phenylephrine or methoxamine); settings: agonist phenylephrine or methoxamine, Schild method, 30 min
Description: The compounds of the invention generally antagonise the α2 -adrenoceptors to a much greater extent than the α1 -adrenoceptors. The α1 antagonistic activity can be evaluated by a number of different methods. One method involves assessing the activity on the isolated anococcygeus muscle of the rat. The method is based on that of Gillespie, Br.J.Pharmac., 1972, 45, 404-416. In the procedure male rats (250-360 g) are killed by a blow on the head and bled. The two anococcygeus muscles are removed from their position in the midline of the pelvic cavity, where they arise from the upper coccygeal vertebrae. The muscles are suspended in 5 ml organ baths in Krebs solution containing 10^-4 M ascorbic acid; to prevent drug oxidation. The tissues are gassed with a 95% oxygen, 5% CO2 mixture and maintained at 37°. Longitudinal muscle contractions are recorded using isotonic transducers. Cumulative dose response curves are then obtained to phenylephrine or in some cases methoxamine, both agents being […] alpha adrenoceptor agonists. The concentration range of phenylephrine or methoxamine used is 0.02 to 0.8 μg.ml^-1. The agonist is then washed from the bath and the test drug added to the bathing medium at a concentration of 10^-6 M. After 30 min equilibration with the test drug a further agonist dose response curve is obtained. […]

Structure (SMILES) | α2 /α1 selectivity [antilog of (α2 pA2 -α1 pA2)] (α2 -adrenoceptor) | pA2 for α2 -adrenoceptor antagonistic activity (α2 -adrenoceptor) | pA2 values for α1 antagonistic activity (α1 -adrenoceptors)
CCCS(=O)(=O)N(C)[C@@H]1CCN2CCc3ccsc3[C@@H]2C1 (relative stereo) [Example 2, N-(4,5,8,9,10,10aα-hexahydro-7H-thieno[2,3-a]quinolizin-9β-yl)-N-methylpropanesulphonamide] | 40 | 7.5 | 5.9
CCS(=O)(=O)NCCN([C@@H]1CCN2CCc3ccsc3[C@@H]2C1)S(=O)(=O)CC (relative stereo) [Example 5, N-(4,5,8,9α,10,10aα-Hexahydro-7H-thieno[2,3-a]quinolizin-9-yl)-N-(2-ethanesulphonamidoethyl)ethane sulphonamide] | 132 | 7.31 | 5.18
